One block for each molecule: values may come before it.
How the values were obtained:
[1] = molecular target: Hepatocyte growth factor receptor (Homo sapiens, UniProt P08581); experiment: Selectivity interaction (Kinase panel (literature)) EUB0001199aCl MET; details: at 1 µM
[2] = molecular target: T1, Ephrin type-B receptor 3 (Homo sapiens) (UniProt P54753); experiment: Selectivity interaction (KinomeScan (DiscoverX)) EUB0000607a EPHB3; details: at 10 µM
T1 sequence (whole entry): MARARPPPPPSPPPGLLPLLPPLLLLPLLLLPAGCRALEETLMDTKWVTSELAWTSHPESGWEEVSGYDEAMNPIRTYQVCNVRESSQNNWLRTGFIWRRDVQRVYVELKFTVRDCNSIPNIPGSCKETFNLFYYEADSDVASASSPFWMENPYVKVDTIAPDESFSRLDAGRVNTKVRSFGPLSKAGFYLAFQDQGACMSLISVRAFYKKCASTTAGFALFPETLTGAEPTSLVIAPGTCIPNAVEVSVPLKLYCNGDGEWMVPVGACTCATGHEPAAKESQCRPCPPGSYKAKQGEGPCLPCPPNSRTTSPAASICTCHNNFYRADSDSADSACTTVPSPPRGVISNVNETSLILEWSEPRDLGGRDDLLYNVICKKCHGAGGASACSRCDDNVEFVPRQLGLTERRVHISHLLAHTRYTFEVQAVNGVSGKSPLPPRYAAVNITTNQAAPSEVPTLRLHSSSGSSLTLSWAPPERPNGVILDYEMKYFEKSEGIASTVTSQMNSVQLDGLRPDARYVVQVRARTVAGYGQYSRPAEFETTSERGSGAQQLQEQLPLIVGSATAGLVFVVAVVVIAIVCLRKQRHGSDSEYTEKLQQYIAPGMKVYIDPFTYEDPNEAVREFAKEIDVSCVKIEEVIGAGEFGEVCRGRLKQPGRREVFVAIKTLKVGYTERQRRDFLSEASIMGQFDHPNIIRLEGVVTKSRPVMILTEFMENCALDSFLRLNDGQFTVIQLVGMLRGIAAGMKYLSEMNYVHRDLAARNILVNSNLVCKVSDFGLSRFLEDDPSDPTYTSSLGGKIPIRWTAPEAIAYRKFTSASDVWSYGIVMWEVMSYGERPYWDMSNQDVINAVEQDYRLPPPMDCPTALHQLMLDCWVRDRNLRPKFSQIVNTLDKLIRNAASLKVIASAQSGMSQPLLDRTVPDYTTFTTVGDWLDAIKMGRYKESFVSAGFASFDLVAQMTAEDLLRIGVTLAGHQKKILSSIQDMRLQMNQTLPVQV

[3] = molecular target: Serine/threonine-protein kinase Nek6 (Homo sapiens) (UniProt Q9HC98); experiment: Selectivity interaction (ActivX KiNativ screen (kinase selectivity in THP-1 cell lysates)) EUB0000639a NEK6; type: subcellular; details: lysate
Chain of Serine/threonine-protein kinase Nek6 (Homo sapiens) (Q9HC98 whole entry): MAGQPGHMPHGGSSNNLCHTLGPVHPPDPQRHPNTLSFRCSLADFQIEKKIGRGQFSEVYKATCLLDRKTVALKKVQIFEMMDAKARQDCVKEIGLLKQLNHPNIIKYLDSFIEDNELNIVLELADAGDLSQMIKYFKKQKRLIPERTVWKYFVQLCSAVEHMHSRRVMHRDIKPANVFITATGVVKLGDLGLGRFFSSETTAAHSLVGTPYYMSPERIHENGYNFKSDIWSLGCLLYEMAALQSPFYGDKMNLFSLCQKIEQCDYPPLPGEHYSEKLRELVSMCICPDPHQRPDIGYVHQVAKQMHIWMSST

[4] = molecular target: T2, NUAK family SNF1-like kinase 1 (Homo sapiens) (UniProt O60285); experiment: Selectivity interaction (KinomeScan (DiscoverX)) EUB0001049a NUAK1; details: at 1 µM
T2 sequence (whole entry): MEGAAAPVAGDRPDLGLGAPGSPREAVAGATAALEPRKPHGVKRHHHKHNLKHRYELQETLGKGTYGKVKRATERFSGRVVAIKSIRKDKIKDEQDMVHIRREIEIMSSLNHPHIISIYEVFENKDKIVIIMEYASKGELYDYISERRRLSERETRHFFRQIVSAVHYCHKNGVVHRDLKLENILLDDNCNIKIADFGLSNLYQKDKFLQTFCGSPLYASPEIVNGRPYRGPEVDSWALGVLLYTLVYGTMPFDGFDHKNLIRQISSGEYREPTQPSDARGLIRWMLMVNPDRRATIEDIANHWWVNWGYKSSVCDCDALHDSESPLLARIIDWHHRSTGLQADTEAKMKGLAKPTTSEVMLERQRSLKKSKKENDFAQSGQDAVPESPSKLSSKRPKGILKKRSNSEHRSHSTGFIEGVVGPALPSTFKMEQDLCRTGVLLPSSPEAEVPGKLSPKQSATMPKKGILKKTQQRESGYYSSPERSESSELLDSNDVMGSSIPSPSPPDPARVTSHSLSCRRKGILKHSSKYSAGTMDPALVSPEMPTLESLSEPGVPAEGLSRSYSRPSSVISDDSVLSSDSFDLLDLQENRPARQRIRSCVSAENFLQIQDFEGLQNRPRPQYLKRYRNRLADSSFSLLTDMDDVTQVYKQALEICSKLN

[5] = molecular target: Serine/threonine-protein kinase SBK1 (Homo sapiens) (UniProt Q52WX2); experiment: Selectivity interaction (KinomeScan (DiscoverX)) EUB0001049a SBK1; details: at 1 µM
Chain of Serine/threonine-protein kinase SBK1 (Homo sapiens) (Q52WX2 whole entry): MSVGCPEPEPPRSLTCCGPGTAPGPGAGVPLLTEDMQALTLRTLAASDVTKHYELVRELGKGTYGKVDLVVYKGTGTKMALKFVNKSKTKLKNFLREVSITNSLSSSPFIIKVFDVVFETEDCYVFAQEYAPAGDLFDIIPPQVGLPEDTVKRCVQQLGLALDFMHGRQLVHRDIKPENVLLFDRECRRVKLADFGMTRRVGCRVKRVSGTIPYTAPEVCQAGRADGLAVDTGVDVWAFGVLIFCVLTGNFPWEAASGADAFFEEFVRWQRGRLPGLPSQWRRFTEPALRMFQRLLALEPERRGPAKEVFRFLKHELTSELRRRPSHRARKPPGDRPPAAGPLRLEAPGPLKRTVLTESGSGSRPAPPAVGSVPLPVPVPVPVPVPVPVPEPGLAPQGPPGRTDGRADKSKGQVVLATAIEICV

[6] = molecular target: Tyrosine-protein kinase JAK1 (Homo sapiens, UniProt P23458); experiment: Selectivity interaction (KinomeScan (DiscoverX)) EUB0000045b JAK1
Chain of Tyrosine-protein kinase JAK1 (P23458 whole entry): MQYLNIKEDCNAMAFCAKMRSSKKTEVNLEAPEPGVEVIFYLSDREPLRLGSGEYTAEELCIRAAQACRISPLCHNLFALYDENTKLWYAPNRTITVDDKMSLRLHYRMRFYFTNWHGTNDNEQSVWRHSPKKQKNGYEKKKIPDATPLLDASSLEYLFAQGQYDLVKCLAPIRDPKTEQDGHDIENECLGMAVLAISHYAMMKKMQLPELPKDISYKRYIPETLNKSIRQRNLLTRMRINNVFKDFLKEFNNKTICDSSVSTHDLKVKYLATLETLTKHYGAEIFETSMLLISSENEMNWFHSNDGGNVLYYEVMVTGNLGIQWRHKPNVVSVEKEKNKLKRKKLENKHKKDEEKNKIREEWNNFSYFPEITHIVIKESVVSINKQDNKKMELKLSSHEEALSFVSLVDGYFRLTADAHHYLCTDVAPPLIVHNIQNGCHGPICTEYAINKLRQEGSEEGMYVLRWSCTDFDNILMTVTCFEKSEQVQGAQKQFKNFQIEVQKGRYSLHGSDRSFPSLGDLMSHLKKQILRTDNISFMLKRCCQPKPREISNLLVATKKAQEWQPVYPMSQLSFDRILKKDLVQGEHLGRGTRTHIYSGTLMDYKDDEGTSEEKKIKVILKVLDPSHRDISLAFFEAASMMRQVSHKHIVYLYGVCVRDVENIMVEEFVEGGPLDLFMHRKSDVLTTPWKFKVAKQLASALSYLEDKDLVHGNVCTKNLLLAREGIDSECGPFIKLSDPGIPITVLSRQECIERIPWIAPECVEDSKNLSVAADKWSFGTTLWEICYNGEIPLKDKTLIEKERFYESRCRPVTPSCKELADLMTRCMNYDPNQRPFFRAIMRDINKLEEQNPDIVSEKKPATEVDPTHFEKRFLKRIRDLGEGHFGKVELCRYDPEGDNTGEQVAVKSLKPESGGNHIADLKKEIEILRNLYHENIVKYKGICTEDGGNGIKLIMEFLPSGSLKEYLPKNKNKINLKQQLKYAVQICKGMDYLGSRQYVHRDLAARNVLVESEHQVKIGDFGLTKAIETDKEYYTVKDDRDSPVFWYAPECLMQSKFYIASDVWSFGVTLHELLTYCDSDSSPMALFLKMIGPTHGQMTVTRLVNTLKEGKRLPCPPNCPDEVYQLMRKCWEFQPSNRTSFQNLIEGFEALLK

[7] = molecular target: T3, Mitogen-activated protein kinase kinase kinase 12 (Homo sapiens) (UniProt Q12852); experiment: Selectivity interaction (KinomeScan (DiscoverX)) EUB0000092b MAP3K12; details: at 10 µM
T3 sequence (whole entry): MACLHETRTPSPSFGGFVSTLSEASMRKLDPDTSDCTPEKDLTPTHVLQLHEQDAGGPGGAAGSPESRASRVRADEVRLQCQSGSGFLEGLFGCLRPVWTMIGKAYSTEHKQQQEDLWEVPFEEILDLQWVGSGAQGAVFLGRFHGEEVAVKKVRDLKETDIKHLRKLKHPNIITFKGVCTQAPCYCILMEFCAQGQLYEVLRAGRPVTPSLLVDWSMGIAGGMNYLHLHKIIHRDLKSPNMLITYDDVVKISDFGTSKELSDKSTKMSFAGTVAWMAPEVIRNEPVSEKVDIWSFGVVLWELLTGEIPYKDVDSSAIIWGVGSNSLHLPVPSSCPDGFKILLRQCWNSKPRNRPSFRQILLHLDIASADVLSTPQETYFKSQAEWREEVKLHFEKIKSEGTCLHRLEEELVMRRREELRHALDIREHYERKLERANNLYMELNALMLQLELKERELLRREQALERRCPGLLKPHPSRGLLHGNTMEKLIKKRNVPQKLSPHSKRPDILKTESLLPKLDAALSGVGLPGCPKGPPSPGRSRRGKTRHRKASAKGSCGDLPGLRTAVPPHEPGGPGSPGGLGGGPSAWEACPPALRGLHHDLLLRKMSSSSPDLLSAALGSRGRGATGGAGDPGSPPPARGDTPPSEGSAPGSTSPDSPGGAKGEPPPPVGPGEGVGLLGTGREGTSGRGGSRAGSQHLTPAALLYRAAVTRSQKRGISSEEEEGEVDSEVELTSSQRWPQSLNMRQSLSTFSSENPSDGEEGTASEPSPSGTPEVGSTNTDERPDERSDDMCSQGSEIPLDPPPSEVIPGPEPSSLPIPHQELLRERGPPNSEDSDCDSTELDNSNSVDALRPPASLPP

Chain of Hepatocyte growth factor receptor (P08581 whole entry): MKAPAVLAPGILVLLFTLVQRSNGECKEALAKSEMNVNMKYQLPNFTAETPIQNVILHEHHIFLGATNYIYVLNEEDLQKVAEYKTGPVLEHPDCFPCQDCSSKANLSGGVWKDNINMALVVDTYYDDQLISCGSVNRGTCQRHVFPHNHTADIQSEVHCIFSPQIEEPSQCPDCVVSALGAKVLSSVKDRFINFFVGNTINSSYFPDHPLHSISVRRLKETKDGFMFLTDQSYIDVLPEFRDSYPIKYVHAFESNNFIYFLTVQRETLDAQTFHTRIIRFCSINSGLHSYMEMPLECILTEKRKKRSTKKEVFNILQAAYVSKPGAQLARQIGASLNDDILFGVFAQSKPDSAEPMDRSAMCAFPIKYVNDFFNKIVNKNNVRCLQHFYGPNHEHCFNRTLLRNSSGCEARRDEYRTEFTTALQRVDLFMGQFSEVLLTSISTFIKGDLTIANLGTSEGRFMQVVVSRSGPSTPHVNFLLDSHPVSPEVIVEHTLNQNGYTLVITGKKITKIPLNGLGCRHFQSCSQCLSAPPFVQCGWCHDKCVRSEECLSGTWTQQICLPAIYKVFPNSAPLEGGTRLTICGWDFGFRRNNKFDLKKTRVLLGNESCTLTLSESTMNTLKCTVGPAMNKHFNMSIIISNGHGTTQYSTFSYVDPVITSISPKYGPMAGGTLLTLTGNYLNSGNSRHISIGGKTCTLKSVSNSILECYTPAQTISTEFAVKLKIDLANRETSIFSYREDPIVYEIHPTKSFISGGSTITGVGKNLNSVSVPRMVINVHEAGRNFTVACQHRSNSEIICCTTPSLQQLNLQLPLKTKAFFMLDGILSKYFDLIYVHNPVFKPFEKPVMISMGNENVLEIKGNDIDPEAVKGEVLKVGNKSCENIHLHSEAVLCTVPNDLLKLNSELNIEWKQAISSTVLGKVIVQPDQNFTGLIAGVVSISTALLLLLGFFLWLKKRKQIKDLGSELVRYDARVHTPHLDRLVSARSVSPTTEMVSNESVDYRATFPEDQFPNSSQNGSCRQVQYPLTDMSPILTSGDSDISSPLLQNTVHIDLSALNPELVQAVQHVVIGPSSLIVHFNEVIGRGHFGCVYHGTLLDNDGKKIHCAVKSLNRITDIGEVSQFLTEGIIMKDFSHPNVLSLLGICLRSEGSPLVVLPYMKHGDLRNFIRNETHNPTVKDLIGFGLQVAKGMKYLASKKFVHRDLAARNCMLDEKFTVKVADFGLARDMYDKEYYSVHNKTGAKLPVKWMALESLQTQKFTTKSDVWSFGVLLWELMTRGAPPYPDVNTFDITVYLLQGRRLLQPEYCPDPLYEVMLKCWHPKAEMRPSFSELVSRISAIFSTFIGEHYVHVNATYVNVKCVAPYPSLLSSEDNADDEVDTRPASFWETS

% of inhibition [1]: 10%
Structure (SMILES): CN1Cc2nccc(-c3cn(C)nc3-c3ccc(F)cc3)c2C1=O

Structure (SMILES): CNC(=O)Nc1ccc(-c2nc(N3CC4CCC(C3)O4)c3cnn(C4CCC5(CC4)OCCO5)c3n2)cc1
% of control [2]: 92%

% of inhibition ([3]; at 0.01 µM): -2.2%
% of inhibition ([3]; at 0.04 µM): 1.5%
% of inhibition ([3]; at 0.2 µM): -2.2%
% of inhibition ([3]; at 1 µM): 2%
% of inhibition ([3]; at 5 µM): -1.4%
Structure (SMILES): CC[C@@H]1[C@H](F)C(=O)N[C@@H]1COc1nccc2cc(C(N)=O)c(OC)cc12 [ZIMLOVISERTIB]

Structure (SMILES): COc1cc(Nc2nc(C)cc(-c3cnn4nc(OC)ccc34)n2)cc(C(F)(F)F)c1
% of control [4]: 100%
% of control [5]: 87%

Structure (SMILES): C=CC(=O)Nc1cc(-n2c(=O)ccc3cnc4ccc(-c5ccc(NS(C)(=O)=O)cc5)cc4c32)ccc1C
% of control ([6]; at 1 µM): 87%
% of control ([6]; at 10 µM): 76%

Structure (SMILES): CCC(=O)N1CCN(c2ccc(-n3c(=O)ccc4cnc5ccc(-c6cnc7ccccc7c6)cc5c43)cc2C(F)(F)F)CC1
% of control [7]: 100%

Source: ChEMBL document CHEMBL5465560, “Selectivity Literature for EUbOPEN Chemogenomic Library” (2024)
